Source: patent publication US3973006A, “Peptide enzyme inhibitors of angiotensin I” (E. R. Squibb & Sons, Inc., priority 1975, dated 1976)

How the values were obtained:
[1] = biological target: angiotensin-converting enzyme (Homo sapiens, UniProt P12821); assay: Inhibition of angiotensin-converting enzyme (conversion of angiotensin I into angiotensin II), I50 determination; assay type: biochemical; settings: for IC50: 0.3 mM angiotensin I, 100 mM potassium phosphate buffer pH 7.5, 30 mM NaCl, 37°, read-out: I50 (concentration of peptide producing a 50% inhibition of angiotensin-converting enzyme) (converted)
Protocol: For determination of I50 values (concentration of peptide expressed in micrograms/ml. producing a 50% inhibition of angiotensin-converting enzyme), varying concentrations of the peptide of Example 19 are added to 13 × 100 mm. assay tubes containing a final volume of 0.25 ml. containing 100 mM. potassium phosphate buffer, pH 7.5, 30 mM. NaCl, and 0.3 mM. angiotensin I. Enzymatic reactions are initiated by addition of enzyme and incubation is carried out at 37°. The concentration of the peptide of Example 19 of the present invention which inhibits conversion of 50% of angiotensin I into angiotensin II is found to be 7 μg./ml as opposed to an I50 (μg/ml) of 0.9 for the parent peptide Pyr-Trp-Pro-Arg-Pro-Gln-Ile-Pro-Pro.

[2] = system: angiotensin I induced pressor response; assay: Inhibition of angiotensin I induced pressor response in anesthetized rats; assay type: in vivo; settings: intravenous; atropinized anesthetized male rats infused with pentolinium; 0.10 μg/kg angiotensin I

Chain of angiotensin-converting enzyme (P12821 30-1306, species assumed): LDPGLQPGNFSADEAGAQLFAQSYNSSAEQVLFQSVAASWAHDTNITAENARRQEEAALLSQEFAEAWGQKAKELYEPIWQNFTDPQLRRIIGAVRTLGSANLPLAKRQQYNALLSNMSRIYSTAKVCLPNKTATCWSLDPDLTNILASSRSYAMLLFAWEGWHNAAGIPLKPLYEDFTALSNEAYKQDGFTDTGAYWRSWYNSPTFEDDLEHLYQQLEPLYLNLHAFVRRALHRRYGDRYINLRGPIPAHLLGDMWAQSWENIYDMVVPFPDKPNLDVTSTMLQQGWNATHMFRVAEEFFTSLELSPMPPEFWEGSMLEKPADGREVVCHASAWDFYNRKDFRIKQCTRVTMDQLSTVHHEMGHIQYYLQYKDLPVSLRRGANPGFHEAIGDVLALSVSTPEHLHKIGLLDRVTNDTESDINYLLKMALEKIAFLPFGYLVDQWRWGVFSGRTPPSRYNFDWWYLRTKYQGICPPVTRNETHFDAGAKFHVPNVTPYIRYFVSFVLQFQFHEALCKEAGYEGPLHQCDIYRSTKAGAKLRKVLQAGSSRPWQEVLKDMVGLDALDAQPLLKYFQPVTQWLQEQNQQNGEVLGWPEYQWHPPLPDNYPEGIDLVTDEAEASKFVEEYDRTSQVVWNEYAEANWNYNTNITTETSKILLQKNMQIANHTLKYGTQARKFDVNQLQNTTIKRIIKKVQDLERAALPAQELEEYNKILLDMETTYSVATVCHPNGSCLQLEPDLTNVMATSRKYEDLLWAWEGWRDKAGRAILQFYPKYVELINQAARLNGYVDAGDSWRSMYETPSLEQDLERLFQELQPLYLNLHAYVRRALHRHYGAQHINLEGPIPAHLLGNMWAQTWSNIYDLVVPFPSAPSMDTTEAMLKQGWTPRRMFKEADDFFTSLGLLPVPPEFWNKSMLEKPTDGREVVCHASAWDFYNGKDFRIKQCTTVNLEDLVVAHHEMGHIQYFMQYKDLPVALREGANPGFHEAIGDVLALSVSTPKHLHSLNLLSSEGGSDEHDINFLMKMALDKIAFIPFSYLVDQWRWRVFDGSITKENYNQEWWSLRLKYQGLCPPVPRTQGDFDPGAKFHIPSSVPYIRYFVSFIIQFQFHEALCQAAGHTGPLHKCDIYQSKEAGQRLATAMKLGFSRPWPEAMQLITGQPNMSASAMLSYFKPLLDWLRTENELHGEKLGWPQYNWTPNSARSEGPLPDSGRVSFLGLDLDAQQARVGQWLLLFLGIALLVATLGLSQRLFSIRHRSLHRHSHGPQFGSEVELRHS

Compound	IC50 [1] [µM]	in vitro potency in inhibiting conversion of angiotensin I into angiotensin II, compared with parent control peptide ([1]; in vitro)	in vivo activity (degree of inhibition of angiotensin I induced pressor response) [2]
CC[C@H](C)[C@H](NC(=O)[C@H](CCC(N)=O)NC(=O)[C@@H]1CCCN1C(=O)[C@H](CCCNC(=N)N)NC(=O)[C@@H]1CCCN1C(=O)[C@H](Cc1c[nH]c2ccccc12)NC(=O)[C@@H]1CCC(=O)N1)C(=O)N1CCC[C@H]1C(=O)N1CCC[C@H]1C(=O)O [Pyr-Trp-Pro-Arg-Pro-Gln-Ile-Pro-Pro, Pyroglutamyl-tryptophyl-prolyl-arginyl-prolyl-glutaminyl-isoleucyl-prolyl-proline, reference compound]	0.817	–	–
CC[C@H](C)[C@H](NC(=O)[C@H](CCC(N)=O)NC(=O)[C@@H]1CCCN1C(=O)[C@H](CCCNC(=N)N)NC(=O)[C@@H]1CCCN1C(=O)[C@H](Cc1c[nH]c2ccccc12)NC(=O)[C@@H]1CCC(=O)N1)C(=O)N1CCC[C@H]1C(=O)N1CCC[C@H]1C(=O)OC [Example 19, Pyroglutamyl-tryptophyl-prolyl-arginyl-prolyl-glutaminyl-isoleucyl-prolyl-proline, methyl ester]	6.28	substantially less potent than the parent control peptide	roughly equivalent to that of the parent Control peptide
